In one series the target is T1, factor Xa (Homo sapiens, UniProt P00742).
T1 construct: Human factor Xa was prepared from purified human factor X obtained from Enzyme Research Laboratories; purchased Enzyme Research Laboratories
Put plainly: Factor Xa assay, chromogenic substrate S2765. Format: biochemical. The conditions noted are these: purified human enzyme, 30 minute incubation, HBSA pH 7.5. How it is done:
(§1) The buffer used for all assays was HBSA (10 mM HEPES, pH 7.5, 150 mM sodium chloride, 0.1% bovine serum albumin). […] Following a 30 minute incubation at ambient temperature, 50 μL of the substrate at the concentrations specified below, was added to the wells yielding a final total volume of 200 μL. The initial velocity of chromogenic substrate hydrolysis was measured by the change in absorbance at 405 nm using a Thermo Max® Kinetic Microplate Reader over a 5 minute period in which less than 5% of the added substrate was utilized.
Factor Xa catalytic activity was determined using the substrate, S2765 (N-α-benzyloxycarbonyl-D-argininyl-L-glycyl-L-arginine-p-nitroanilide dihydrochloride) which was obtained from Kabi Diagnostica. […] Human factor Xa was prepared from purified human factor X obtained from Enzyme Research Laboratories according to the method described by Bock, P. E. et al., Archives of Biochem. Biophys. 273: 375 (1989). The enzyme was diluted into HBSA prior to the assay in which the final concentration was 0.5 nM.

Another series addresses plasmin (Homo sapiens, UniProt P00747). Put plainly: Plasmin assay, chromogenic substrate S-2251. The format is biochemical. The note with it: purified human enzyme, 30 minute incubation, HBSA pH 7.5. The protocol:
as §1
Plasmin catalytic activity was determined using the chromogenic substrate, S-2251 [D-valyl-L-leucyl-L-lysine-p-nirtoanilide dihydrochloride], which was obtained from Kabi Diagnostica.

The target in the next series is thrombin (Homo sapiens, UniProt P00734). Put plainly: Thrombin assay, chromogenic substrate Pefachrome t-PA. The conditions noted are these: purified human enzyme, 30 minute incubation, HBSA pH 7.5. The format is biochemical. How it is done:
The buffer used for all assays was HBSA (10 mM HEPES, pH 7.5, 150 mM sodium chloride, 0.1% bovine serum albumin). […] Following a 30 minute incubation at ambient temperature, 50 μL of the substrate at the concentrations specified below, was added to the wells yielding a final total volume of 200 μL.
Thrombin catalytic activity was determined using the chromogenic substrate Pefachrome t-PA (CH3 SO2 -D-hexahydrotyrosine-glycyl-L-arginine-p-nitroaniline, obtained from Pentapharm Ltd.).

The nature of series [1]: Pharmacokinetics after oral and i.v. administration in dogs. The format is in vivo, dog. The protocol: The pharmacodynamic and pharmacokinetic parameters of the compound of Example 34 (and same compound described in Example 91) were evaluated after oral administration in dogs. Adult beagle dogs (9-12 kg) were housed individually in standard cages, and were fed a standard certified commercial diet and tap water ad libitum. Dogs were given an oral dose of either 10 mg/kg or 20 mg/kg test compound, in 55 ml deionized water, via a gastric tube, followed by a water rinse. In a separate protocol, 5 mg/kg of test compound, in 5 ml 0.9% sodium chloride, were administered by fast bolus i.v. injection through an indwelling saphenous vein catheter. The same dogs were used for all doses and both routes of administration, with a one week wash out period between use of the dogs for the different doses and protocols. […]
(§2) The blood levels of test compound were measured by extracting the compound from plasma, separation by HPLC, and post-column derivatization with a fluorogenic functional group. The clotting time of blood was measured using an APTT assay, which measures the prolongation of the activated partial thromboplastin time (APTT) by the test compound. […]
The systemic bioavailability of the test compound administered by the oral route was calculated by comparing the AUC values (area under curve describing level of compound in blood over time) after i.v. and oral administration. […]

In series [2] the test system is activated partial thromboplastin time (APTT). Kind of series: APTT clotting time of blood samples after oral dosing in dogs. The conditions noted are these: both doses (10 and 20 mg/kg). The format is in vivo, dog. The protocol:
The pharmacodynamic and pharmacokinetic parameters of the compound of Example 34 (and same compound described in Example 91) were evaluated after oral administration in dogs. Adult beagle dogs (9-12 kg) were housed individually in standard cages, and were fed a standard certified commercial diet and tap water ad libitum. Dogs were given an oral dose of either 10 mg/kg or 20 mg/kg test compound, in 55 ml deionized water, via a gastric tube, followed by a water rinse. In a separate protocol, 5 mg/kg of test compound, in 5 ml 0.9% sodium chloride, were administered by fast bolus i.v. injection through an indwelling saphenous vein catheter. The same dogs were used for all doses and both routes of administration, with a one week wash out period between use of the dogs for the different doses and protocols.
Blood samples were collected during the experimental period from the cephalic vein using sodium citrate (0.38% final concentration) as anticoagulant (nine volumes blood to one volume sodium citrate). […]
as §2

Series [3] has as its system FeCl3 -induced platelet-dependent arterial thrombosis. Format: in vivo. The note with it: rat carotid artery. From the text:
Res., 60: 269-280 (1990). […] Res., 60: 269-280 (1990). […] The animals were then euthanized.

Read-outs that look alike come from different tables or passages of the source. Peptide text beside a SMILES is read from it. * marks the point of attachment. Hydrocinnamoyl = O=C(CCc1ccccc1)*; Tos = Cc1ccc(S(=O)(=O)*)cc1

T1 sequence (P00742 235-488 limits assumed): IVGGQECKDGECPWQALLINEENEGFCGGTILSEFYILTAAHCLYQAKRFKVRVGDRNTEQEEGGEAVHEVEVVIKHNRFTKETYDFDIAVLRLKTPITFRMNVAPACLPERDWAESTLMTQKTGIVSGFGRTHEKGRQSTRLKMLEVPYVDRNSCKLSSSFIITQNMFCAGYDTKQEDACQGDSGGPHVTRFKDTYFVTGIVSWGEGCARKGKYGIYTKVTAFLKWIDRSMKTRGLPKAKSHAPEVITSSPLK
T1 sequence (P00742 41-179 partner limits assumed): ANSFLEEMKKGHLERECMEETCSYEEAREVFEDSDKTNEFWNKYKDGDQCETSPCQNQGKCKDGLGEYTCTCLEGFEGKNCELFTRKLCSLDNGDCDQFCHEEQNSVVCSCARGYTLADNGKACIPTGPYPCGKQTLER
plasmin, sequence (P00747 581-810 limits assumed): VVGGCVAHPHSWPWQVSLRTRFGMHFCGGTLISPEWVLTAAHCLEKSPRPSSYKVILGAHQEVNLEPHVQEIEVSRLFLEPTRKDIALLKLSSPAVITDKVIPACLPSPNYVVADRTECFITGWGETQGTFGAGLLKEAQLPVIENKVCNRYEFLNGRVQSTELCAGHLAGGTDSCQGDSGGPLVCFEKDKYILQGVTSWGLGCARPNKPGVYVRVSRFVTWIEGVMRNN
plasmin, sequence (P00747 97-580 partner limits assumed): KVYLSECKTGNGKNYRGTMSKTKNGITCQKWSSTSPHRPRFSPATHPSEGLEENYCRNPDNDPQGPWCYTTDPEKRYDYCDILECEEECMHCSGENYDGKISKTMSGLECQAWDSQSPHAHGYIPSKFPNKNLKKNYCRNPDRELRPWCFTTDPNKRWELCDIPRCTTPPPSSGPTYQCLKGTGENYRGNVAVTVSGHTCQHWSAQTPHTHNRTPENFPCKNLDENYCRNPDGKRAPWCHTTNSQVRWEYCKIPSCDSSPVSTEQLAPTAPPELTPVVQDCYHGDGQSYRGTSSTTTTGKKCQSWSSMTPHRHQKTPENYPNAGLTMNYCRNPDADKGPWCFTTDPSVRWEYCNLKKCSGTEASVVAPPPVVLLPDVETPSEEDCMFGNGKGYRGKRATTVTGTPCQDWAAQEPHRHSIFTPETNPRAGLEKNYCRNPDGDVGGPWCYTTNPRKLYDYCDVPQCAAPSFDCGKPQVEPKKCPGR

Turning to `COC(=O)C[C@H](NS(=O)(=O)c1ccc2ccccc2c1)C(=O)N1CCC[C@H]1C(=O)N[C@H](C=O)CCCNC(=N)N` [2-NpSO2 -Asp(OCH3)-Pro-Arg-al, N-(2-naphthylsulfonyl)-L-aspartyl-(β-methyl ester)-L-prolyl-L-argininal], the values for the IC50 against factor Xa, against plasmin and at thrombin were 0.0043 µM, 0.106 µM and 0.00062 µM, respectively.

Take `CCCC(CCC)C(=O)N[C@@H](CC(=O)OC)C(=O)N1CCC[C@H]1C(=O)N[C@H](C=O)CCCNC(=N)N` [2PrPent-Asp(OCH3)-Pro-Arg-al, N-(2-propylpentanoyl)-L-aspartyl-β-(methyl ester)-L-prolyl-L-argininal]: it took 0.261 µM to reach half-maximal inhibition against plasmin (IC50).

As for `CCCC(CCC)C(=O)N[C@@H](CC(=O)O)C(=O)N1CCC[C@H]1C(=O)N[C@H](C=O)CCCNC(=N)N` [2PrPent-Asp-Pro-Arg-al, N-(2-propylpentanoyl)-L-aspartyl-L-prolyl-L-argininal], it took 0.254 µM to reach half-maximal inhibition against plasmin (IC50).

As for `CC(C)CCC(=O)N[C@@H](CC(=O)O)C(=O)N1CCC[C@H]1C(=O)N[C@H](C=O)CCCNC(=N)N` [4MeV-Asp-Pro-Arg-al, N-(4-methylpentanoyl)-L-aspartyl-L-prolyl-L-argininal], half-maximal inhibition against plasmin (IC50) was put at 0.396 µM.

For `COC(=O)C[C@H](NS(=O)(=O)c1ccc(C)cc1)C(=O)N1CCC[C@H]1C(=O)N[C@H](C=O)CCCNC(=N)N` [(4-MePh)SO2 -Asp(OCH3)-Pro-Arg-al, N-(4-methylphenylsulfonyl)-L-aspartyl-(β-methyl ester)-L-prolyl-L-argininal] (Tos-Asp(OMe)-Pro-Arg-aldehyde), the IC50 at factor Xa worked out at 0.0095 µM; against plasmin, 0.111 µM; against thrombin, 0.0011 µM.

As to `N=C(N)NCCC[C@@H](C=O)NC(=O)[C@@H]1CCCN1C(=O)[C@H](CC(=O)O)NC(=O)CC1CCCCC1` [ChxAc-Asp-Pro-Arg-al, N-(1-cyclohexylacetyl)-L-aspartyl-L-prolyl-L-argininal], the figures for the 50% inhibitory concentration (IC50) against factor Xa, against plasmin and at thrombin were 0.015 µM, 0.075 µM and 0.047 µM, respectively.

In turn, `N=C(N)NCCC[C@@H](C=O)NC(=O)[C@@H]1CCCN1C(=O)[C@H](CC(=O)O)NC(=O)CCC1CCCCC1` [ChxPA-Asp-Pro-Arg-al, N-(3-cyclohexanepropionyl)-L-aspartyl-L-prolyl-L-argininal] gave an IC50 against plasmin of 0.25 µM.

As for `CCCC(CCC)C(=O)N[C@@H](CC(=O)OC)C(=O)N1CCC[C@H]1C(=O)N[C@H](C=O)CCCNC(=N)N.O=C(O)C(F)(F)F` [Example 34, N-(2-propylpentanoyl)-L-aspartyl-beta-(methyl ester)-L-prolyl-L-argininal, trifluoroacetate salt], in series [1], the “time to maximum blood level of compound” value is 45 to 60 min. In series [2], the “duration of elevated APTT” value is given as “up to two hours” and the “time to significant elevation of APTT” value is 20 to 30 min.

At plasmin, `N=C(N)NCCC[C@@H](C=O)NC(=O)[C@@H]1CCCN1C(=O)[C@H](CC(=O)O)NC(=O)CCc1ccccc1` [HCA-Asp-Pro-Arg-al, N-(3-phenylpropionyl)-L-aspartyl-L-prolyl-L-argininal] (Hydrocinnamoyl-Asp-Pro-Arg-aldehyde) yielded an IC50 of 0.481 µM. Besides, the “Incidence of Occlusion” value in series [3] (Group1, 25 μg/kg/min i.v. infusion) is 5/6; in series [3] (Group2, 50 μg/kg/min i.v. infusion), 1/5; in series [3] (Group3, 100 μg/kg/min i.v. infusion), 0/5.

As for `CCCCS(=O)(=O)N[C@@H](CC(=O)OC)C(=O)N1CCC[C@H]1C(=O)N[C@H](C=O)CCCNC(=N)N` [n-BuSO2 -Asp(OCH3)-Pro-Arg-al, N-(butylsulfonyl)-L-aspartyl-(β-methyl ester)-L-prolyl-L-argininal], the IC50 on factor Xa was determined as 0.015 µM; against plasmin, 0.25 µM; on thrombin it was 0.0037 µM.

“N-phenylsulfonyl-L-aspartyl-(β-methyl ester)-L-prolyl-L-argininal [BzlSO2 -Asp(OCH3)-Pro-Arg-al]”: the results for the IC50 at factor Xa and against thrombin were 0.03 µM and 0.005 µM, respectively.

Values taken from patent US5955576A, “Inhibitors of thrombosis” (Corvas International, Inc., priority 1995, dated 1999).
